Test results: article PMC8765437, “GSK3640254 Is a Novel HIV-1 Maturation Inhibitor with an Optimized Virology Profile” (Antimicrobial Agents and Chemotherapy, 2022)
Where two headings read alike, the source gives them in different places.

Test system: NLRepRlucP373S viruses containing Gag SDMs or gag/pr genes from clinical isolates
Assay: Multiple-cycle replication assay, NLRepRluc reporter viruses in MT-2 cells, luciferase endpoint
Type: cell-based, HIV-1
Text: Multiple-cycle assays using recombinant viruses or clinical isolates were used to assess MI antiviral activity as described previously ([10]). pNLRepRlucP373S (the P373S change is in the Gag gene and converts an outlier polymorphism in the NL4-3 gene to the prevalent amino acid in the population) plasmids containing SDMs in Gag or gag/pr regions from clinical isolates were transfected into HEK 293T cells, and the supernatant containing recombinant virus was harvested after 4 to 5 days. Virus was used to infect MT-2 cells in the presence of a 3-fold serially diluted compound at a final dimethyl sulfoxide (DMSO) concentration of 1%. The inocula of the reporter viruses were determined based on the luciferase activity detected on day 4 postinfection. The MOI (ratio of infectious virions to target cells) of reporter-free laboratory strains and clinical isolates was 0.005, as derived from a tissue culture infectious dose study. Clinical isolates or reporter-free viruses were examined in the reporter CEM-NKR-CCR5-Luc cells or PBMCs at MOIs ranging from 0.005 to 0.01. Each infection started with a drug-free preincubation of the cell-virus mixtures, performed at 37°C and 5% CO2 for either 1 h at 2 times the final cell density (reporter viruses) or 1 h (reporter-free laboratory strains) or 3 h (clinical isolates) using cell pellets in 0.5 mL of medium. After preincubation, cell-virus mixtures were added to compound-containing 96-well plates for a final cell density of either 10,000 (MT-2 cells for reporter viruses), 20,000 (MT-2 and PM1 cells for reporter-free laboratory strains), 200,000 (PBMCs for clinical isolates), or 500,000 (CEM-NKR-CCR5-Luc for reporter-free laboratory strains) cells per well. The CEM-NKR-CCR5-Luc cell assay was performed in the presence of Polybrene (10 μg/mL). Virus growth was determined on days 4 to 5 postinfection for reporter variants or days 5 to 11 for the other viruses. The reporter viruses were detected by a luciferase assay according to manufacturer protocols (Brite-Glo luciferase kit [Promega] for CEM-NKR-CCR5-Luc cells and Dual-Luciferase Reporter 1000 assay system [Promega] for the other cells), and luminescence was detected on a Wallac Trilux. The growth of clinical isolates in PBMCs was quantitated by reverse transcriptase activity in a 96-well scintillation proximity assay (SPA). Twenty microliters of culture supernatants was mixed with 40 μL of reaction cocktail (62.5 mM Tris-HCl [pH 7.8], 100 mM KCl, 0.0625% NP-40, 2.5 mM dithiothreitol [DTT], 6.25 mM MgCl2, 1 mM EGTA, 6.25 μg/mL of poly rA, 2.5 μg/mL of streptavidin SPA beads prebound with biotinylated-dT12-18, and 1 μCi of [^3H]TTP). Mixtures were incubated at 37°C for ∼3 h and quenched with 100 μl of 0.25 M EDTA per well. Luminescence was detected on a Wallac Trilux programmed for tritium counting with SPA beads in opaque plates. The growth of the reporter-free laboratory M-tropic strains and clinical isolates was monitored by a p24 enzyme-linked immunosorbent assay (ELISA; PerkinElmer Life Sciences, Waltham, MA) performed on culture supernatants. […] A 1:1,000 dilution of cell supernatant in PBS was generally observed to fall in the dynamic range of the endpoint signal.
Maximal percent inhibition values were calculated as MPI = 100 – (mean signals at the 2 highest concentrations of compound/mean signal of 2 no-drug control wells) × 100.

[1] = Human immunodeficiency virus 1, MT2, ΔV370, 10% FBS

C=C(C)[C@@H]1CC[C@]2(NCCN3CCS(=O)(=O)CC3)CC[C@]3(C)[C@H](CC[C@@H]4[C@@]5(C)CC=C(C6=CC[C@@](CF)(C(=O)O)CC6)C(C)(C)[C@@H]5CC[C@]43C)[C@@H]12 [GSK’254]
EC90 (Human immunodeficiency virus 1, MT2, read-out: PBA EC90, subtype B gag/pr 93US155 (V370T)): 14 nM
EC90 (Human immunodeficiency virus 1, MT2, read-out: PBA EC90, subtype B gag/pr 411-1-C (Wild-type)): 7 nM
EC90 (Human immunodeficiency virus 1, MT2, read-out: PBA EC90, subtype B gag/pr 220162 (Wild-type)): 40 nM
EC90 (Human immunodeficiency virus 1, MT2, read-out: PBA EC90, subtype B gag/pr 400024 (V370M)): 10 nM
EC90 (Human immunodeficiency virus 1, MT2, read-out: PBA EC90, subtype B gag/pr 400051 (V370A)): 21 nM
EC90 (Human immunodeficiency virus 1, MT2, read-out: PBA EC90, subtype B gag/pr 1000038 (V362I/V370A)): 43 nM
EC90 (Human immunodeficiency virus 1, MT2, read-out: PBA EC90, subtype B gag/pr 1000156 (V362I)): 63 nM
EC90 (Human immunodeficiency virus 1, MT2, read-out: PBA EC90, subtype B gag/pr 1900120 (V370M)): 11 nM
EC90 (Human immunodeficiency virus 1, MT2, read-out: PBA EC90, subtype B gag/pr 1900140 (V362I)): 47 nM
EC90 (Human immunodeficiency virus 1, MT2, read-out: PBA EC90, subtype C gag/pr 93MW690): 17 nM
EC90 (Human immunodeficiency virus 1, MT2, read-out: PBA EC90, subtype C gag/pr 97ZA003): 24 nM
EC90 (Human immunodeficiency virus 1, MT2, read-out: PBA EC90, subtype C gag/pr 98CN009): 27 nM
EC90 (Human immunodeficiency virus 1, MT2, read-out: PBA EC90, subtype C gag/pr 98IN026): 16 nM
EC90 (Human immunodeficiency virus 1, MT2, read-out: PBA EC90, subtype C gag/pr 11657-3): 37 nM
EC90 (Human immunodeficiency virus 1, MT2, read-out: PBA EC90, subtype C gag/pr 20635-4): 40 nM
EC90 (Human immunodeficiency virus 1, MT2, read-out: PBA EC90, subtype C gag/pr 1700141): 19 nM
EC90 (Human immunodeficiency virus 1, MT2, read-out: PBA EC90, subtype C gag/pr 1900543): 24 nM
EC90 (Human immunodeficiency virus 1, MT2, read-out: mean PBA EC90, 44-member library of genotyped chimeric and SDM viruses, protein-binding adjusted): 33 nM
EC50 (Human immunodeficiency virus 1, MT2, subtype B gag/pr 4NRR (Wild-type)): 1 nM
EC50 (Human immunodeficiency virus 1, MT2, subtype B gag/pr 28-MDR (Wild-type)): 1 nM
EC50 (Human immunodeficiency virus 1, MT2, subtype B gag/pr 92BR014 (V370M)): 1 nM
EC50 (Human immunodeficiency virus 1, MT2, subtype B gag/pr 92BR018 (V, QAΔ)): 1 nM
EC50 (Human immunodeficiency virus 1, MT2, subtype B gag/pr 92TH014 (V362I)): 1 nM
EC50 (Human immunodeficiency virus 1, MT2, subtype B gag/pr 92TH026 (V362I)): 4 nM
EC50 (Human immunodeficiency virus 1, MT2, subtype B gag/pr 92US072 (V362I)): 1 nM
EC50 (Human immunodeficiency virus 1, MT2, subtype B gag/pr 92US729 (Wild-type)): 1 nM
EC50 (Human immunodeficiency virus 1, MT2, subtype B gag/pr 93BR008 (V362I)): 2 nM
EC50 (Human immunodeficiency virus 1, MT2, subtype B gag/pr 93BR009 (V370M)): 2 nM
EC50 (Human immunodeficiency virus 1, MT2, subtype B gag/pr 93BR017 (V, QAΔ)): 2 nM
EC50 (Human immunodeficiency virus 1, MT2, subtype B gag/pr 93BR022 (V, QAΔ)): 3 nM
EC50 (Human immunodeficiency virus 1, MT2, subtype B gag/pr 93TH0647 (V362I)): 2 nM
EC50 (Human immunodeficiency virus 1, MT2, subtype B gag/pr 93US141 (V362I)): 2 nM
EC50 (Human immunodeficiency virus 1, MT2, subtype B gag/pr 93US155 (V370T)): 1 nM
EC50 (Human immunodeficiency virus 1, MT2, subtype B gag/pr 411-1-C (Wild-type)): 0.5 nM
EC50 (Human immunodeficiency virus 1, MT2, subtype B gag/pr 220162 (Wild-type)): 2 nM
EC50 (Human immunodeficiency virus 1, MT2, subtype B gag/pr 400024 (V370M)): 1 nM
EC50 (Human immunodeficiency virus 1, MT2, subtype B gag/pr 400051 (V370A)): 1 nM
EC50 (Human immunodeficiency virus 1, MT2, subtype B gag/pr 1000038 (V362I/V370A)): 3 nM
EC50 (Human immunodeficiency virus 1, MT2, subtype B gag/pr 1000156 (V362I)): 4 nM
EC50 (Human immunodeficiency virus 1, MT2, subtype B gag/pr 1900120 (V370M)): 1 nM
EC50 (Human immunodeficiency virus 1, MT2, subtype B gag/pr 1900140 (V362I)): 1 nM
EC50 (Human immunodeficiency virus 1, MT2, subtype C gag/pr 93MW690): 1 nM
EC50 (Human immunodeficiency virus 1, MT2, subtype C gag/pr 97ZA003): 1 nM
EC50 (Human immunodeficiency virus 1, MT2, subtype C gag/pr 98CN009): 1 nM
EC50 (Human immunodeficiency virus 1, MT2, subtype C gag/pr 98IN026): 1 nM
EC50 (Human immunodeficiency virus 1, MT2, subtype C gag/pr 10215-6): 1 nM
EC50 (Human immunodeficiency virus 1, MT2, subtype C gag/pr 11657-3): 2 nM
EC50 (Human immunodeficiency virus 1, MT2, subtype C gag/pr 20635-4): 1 nM
EC50 (Human immunodeficiency virus 1, MT2, subtype C gag/pr 20706-3): 1 nM
EC50 (Human immunodeficiency virus 1, MT2, subtype C gag/pr 1300495): 1 nM
EC50 (Human immunodeficiency virus 1, MT2, subtype C gag/pr 1700141): 2 nM
EC50 (Human immunodeficiency virus 1, MT2, subtype C gag/pr 1900543): 1 nM
EC50 [1]: 4.4 nM
EC90 [1]: 7.8 nM
MPI (SDM A326T/V362I/V370A): 69%
MPI (SDM A364V): 70%
MPI (SDM R361K/V362I/L363M): 91%
MPI (SDM T332S/V362I/prR41G): 97%
MPI (SDM V362I/V370A): 91%
MPI (SDM V370A): 97%
MPI (SDM Wild type): 98%
MPI (SDM ΔV370): 96%
